Test results: ChEMBL document CHEMBL4296183, “CO-ADD screening of NIH NCI Natural Product Set III” (2020)
In brackets after ≈: the same amount, converted by molar mass.

Legend:
[1] = tested on: Escherichia coli; experiment: microbe, parasite or virus in culture; conditions: ATCC 25922, 18 h, ASSAY_TEST Inhibition of Bacterial Growth, detection method Absorption (OD600), MEDIA CAMHB, plate type 384well, NBS, CORNING #3640
Description: Antibacterial activity against Escherichia coli ATCC 25922 (CO-ADD:GN_001); MIC in CAMBH media using NBS plates, by OD(600)

[2] = tested on: Acinetobacter baumannii; experiment: microbe, parasite or virus in culture; conditions: ATCC 19606, 18 h, ASSAY_TEST Inhibition of Bacterial Growth, detection method Absorption (OD600), MEDIA CAMHB, plate type 384well, NBS, CORNING #3640
Description: Antibacterial activity against Acinetobacter baumannii ATCC 19606 (CO-ADD:GN_034); MIC in CAMBH media using NBS plates, by OD600

[3] = tested on: Staphylococcus aureus; experiment: microbe, parasite or virus in culture; conditions: ATCC 43300, 18 h, ASSAY_TEST Inhibition of Bacterial Growth, detection method Absorption (OD600), MEDIA CAMHB, plate type 384well, NBS, CORNING #3640
Description: Antibacterial activity against Staphylococcus aureus MRSA ATCC 43300 (CO-ADD:GP_020); MIC in CAMBH media, using NBS plates, by OD(600)

[4] = tested on: HEK293; experiment: cells; format: functional; conditions: Homo sapiens, ATCC CRL1573, HEK293; ASSAY_TEST Inhibition of Cell Viability; detection method Resazurin; Fluorescence (ex560/em590); MEDIA DMEM with 10% FBS; plate type 384well; TC; CORNING #3712; time 18 hr
[5] = tested on: Klebsiella pneumoniae; experiment: microbe, parasite or virus in culture; conditions: ATCC 700603, 18 h, ASSAY_TEST Inhibition of Bacterial Growth, detection method Absorption (OD600), MEDIA CAMHB, plate type 384well, NBS, CORNING #3640
Description: Antibacterial activity against Klebsiella pneumoniae MDR ATCC 70063 (CO-ADD:GN_003); MIC in CAMBH media using NBS plates, by OD(600)

[6] = tested on: Candida albicans; experiment: microbe, parasite or virus in culture; conditions: ATCC 90028, ASSAY_TEST Inhibition of Fungal Growth, detection method Absorption (OD530), plate type 384well, NBS, CORNING #3640
Description: Antifungal activity against Candida albicans ATCC 90028 (CO-ADD:FG_001); MIC in YNB media using NBS plates, by OD630

[7] = tested on: Cryptococcus neoformans
Description: Antifungal activity against Cryptococcus neoformans H99 ATCC 208821 (CO-ADD:FG_002); MIC in YNB media using NBS plates, by Resazurin OD(600-570)

[8] = tested on: Pseudomonas aeruginosa; experiment: microbe, parasite or virus in culture; conditions: ATCC 27853, 18 h, ASSAY_TEST Inhibition of Bacterial Growth, detection method Absorption (OD600), MEDIA CAMHB, plate type 384well, NBS, CORNING #3640
Description: Antibacterial activity against Pseudomonas aeruginosa ATCC 27853 (CO-ADD:GN_042); MIC in CAMBH media using NBS plates, by OD(600)

| Compound | MIC [1] [µM] | MIC [2] [µM] | MIC [3] [µM] | CC50 [4] [µM] | MIC [5] [µM] | MIC [6] [µM] | MIC [7] [µM] | MIC [8] [µM] |
| --- | --- | --- | --- | --- | --- | --- | --- | --- |
| CC1=C2C(=CC(C)(C)[C@@H]2O)C(=O)[C@](C)(O)C12CC2 [ILLUDIN M] | > 10 | > 10 | > 10 | 0.114 | > 10 | > 10 | > 10 | > 10 |
| CC1(C)CCC2=C(O1)c1ccccc1C(=O)C2=O [LAPACHONE] | > 10 | > 10 | > 10 | > 10 | > 10 | > 10 | > 10 | > 10 |
| COc1cc2cc(c1Cl)N(C)C(=O)C[C@H](OC(=O)[C@H](C)N(C)C(C)=O)[C@]1(C)O[C@H]1[C@H](C)[C@@H]1C[C@@](O)(NC(=O)O1)[C@H](OC)/C=C/C=C(\C)C2 [MAYTANSINE] | > 10 | > 10 | > 10 | > 10 | > 10 | > 10 | 0.625 (≈ 0.433 µg/mL) | > 10 |
| CC1OC(CC(=O)O)CC2=C1C(=O)c1c(O)cccc1C2=O (centres undefined) [NANAOMYCIN] | > 10 | > 10 | 0.312 (≈ 0.0945 µg/mL) | 0.188 | > 10 | 0.625 (≈ 0.189 µg/mL) | 1.25 (≈ 0.378 µg/mL) | > 10 |
| C=C(C)[C@H]1Cc2c(ccc3c2O[C@@H]2COc4cc(OC)c(OC)cc4[C@@H]2C3=O)O1 [ROTENONE] | > 10 | > 10 | > 10 | > 10 | > 10 | > 10 | 10 (≈ 3.94 µg/mL) | > 10 |
| CO[C@H]1C[C@@H]2CC[C@@H](C)[C@@](O)(O2)C(=O)C(=O)N2CCCC[C@H]2C(=O)O[C@H]([C@H](C)C[C@@H]2CC[C@@H](O)[C@H](OC)C2)CC(=O)[C@H](C)/C=C(\C)[C@@H](O)[C@@H](OC)C(=O)[C@H](C)C[C@H](C)/C=C/C=C/C=C/1C [SIROLIMUS] | > 10 | > 10 | > 10 | > 10 | > 10 | ≤ 0.0781 | 0.156 (≈ 0.143 µg/mL) | > 10 |
| COC1=C(N)C(=O)c2nc(-c3nc(C(=O)O)c(C)c(-c4ccc(OC)c(OC)c4O)c3N)ccc2C1=O [STREPTONIGRIN] | 5 (≈ 2.53 µg/mL) | > 10 | ≤ 0.0781 | 0.115 | > 10 | 0.156 (≈ 0.0792 µg/mL) | 1.25 (≈ 0.633 µg/mL) | 10 (≈ 5.06 µg/mL) |
| COC[C@H]1OC(=O)c2coc3c2[C@@]1(C)C1=C(C3=O)[C@@H]2CCC(=O)[C@@]2(C)C[C@H]1OC(C)=O [WORTMANNIN] | > 10 | > 10 | > 10 | 7.83 | > 10 | 0.625 (≈ 0.268 µg/mL) | 5 (≈ 2.14 µg/mL) | > 10 |
